This is an account of results in ChEMBL document CHEMBL1201862, “PubChem BioAssay data set” (2004).

The structures appear in SMILES notation.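 Where inhibition never reached the appropriate level, the endpoint shown equals the highest concentration tested. Otherwise, values were interpolated linearly from a five-concentration, 48-hour dose response in 96-well plates. GI50 marks 50% less growth.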 Calls of active or inactive are those of the source. Rule as the data show it: active = GI50 up to about 1.1 µM and inactive = higher.

Common to all, as to experiment: DTP human tumour cell line panel, 48 h
Assay [1] concerns A498.
Assay [2] has as its system CCRF-CEM.
The subject of assay [3] is HCC 2998.
Assay [4] concerns HCT-116.
Assay [5] deals with HOP-62.
The subject of assay [6] is K562.
In assay [7] the test system is NCI-H23.
In assay [8] the test system is NCI-H522.
The test system of assay [9] is NCI/ADR-RES.
Assay [10] relates to OVCAR-3.
The test system of assay [11] is OVCAR-5.
For assay [12], the system named is RXF 393.
Assay [13] deals with SF-268.
The subject of assay [14] is SF-295.
For assay [15], the system named is SK-MEL-5.
In assay [16] the test system is SK-OV-3.
The test system of assay [17] is SNB-19.
In assay [18] the test system is SNB-75.
Assay [19] deals with UACC-62.
The test system of assay [20] is HL-60.

Regarding `CC(=O)Nc1ccc(/C=C/C(=O)N2CC(CCl)c3c2cc(N)c2ccccc32)cc1` (centres undefined), the GI50 (usually the concentration that inhibits growth by half) is < 0.005 µM (active) in [1]; < 0.005 µM (active) in assay [2]; < 0.005 µM (active) in assay [3]; < 0.005 µM (active) in assay [4]; < 0.005 µM (active) in [5]; 0.0211 µM (active) in [6]. Further, the 50% growth inhibitory concentration (GI50) in assay [7] is < 0.005 µM (active); in assay [8], < 0.005 µM (active); in assay [9] it was < 0.005 µM (active); in assay [10], 0.0127 µM (active); in [11] it was < 0.005 µM (active); in [12], < 0.005 µM (active). The GI50 in [13] was < 0.005 µM (active); in assay [14] it was < 0.005 µM (active); in assay [15], < 0.005 µM (active); in assay [16] it was 0.0091 µM (active); in assay [17], < 0.005 µM (active); in assay [18] it was 0.01 µM (active). Also, in [19], the GI50 was < 0.005 µM (active).
Turning to `C/C(=C\c1ccc(Cl)cc1)C(C)(C)C(=O)O`, the GI50 in [1] is > 100 µM (inactive); in assay [2], 52.5 µM (inactive); in [3] it was > 100 µM (inactive); in assay [4], > 100 µM (inactive); in assay [20], > 100 µM (inactive); in [5], > 100 µM (inactive). For the same compound, the GI50 in assay [6] was 1.95 µM (inactive); in [7] it was > 100 µM (inactive); in assay [8], > 100 µM (inactive); in assay [9] it was > 100 µM (inactive); in assay [10] it was > 100 µM (inactive); in [11] it was > 100 µM (inactive). In addition, the GI50 in assay [12], in [13], in assay [14], in [15], in assay [16] and in assay [17] was > 100 µM (inactive) each time. The GI50 in assay [18] and in assay [19] was > 100 µM (inactive) throughout.
In the case of `O=C1CSC(c2ccccc2)N1c1ccc(-c2ccc(-n3c(-c4ccccc4)nc4ccccc4c3=O)cc2)cc1` (centres undefined), the GI50 in [1] is > 100 µM (inactive); in [2], 37.2 µM (inactive); in assay [3], 34.8 µM (inactive); in assay [20], 27.4 µM (inactive); in [5], > 100 µM (inactive); in assay [6] it was 33.3 µM (inactive). In addition, the GI50 in [7] is 57.1 µM (inactive); in [8], 47.8 µM (inactive); in [9], 43.5 µM (inactive); in [10] it was 46.5 µM (inactive); in [11] it was > 100 µM (inactive); in assay [13], 49.4 µM (inactive). Moreover, the GI50 in assay [14] is 64.3 µM (inactive); in assay [15], 25.2 µM (inactive); in assay [16], > 100 µM (inactive); in [17] it was 82.8 µM (inactive); in assay [19], 34.6 µM (inactive).
Take `N=C(N)N/N=C\c1c(-c2cccc([N+](=O)[O-])c2)nc2sccn12`: the GI50 in assay [1] is 25 µM (inactive); in [2], 2.93 µM (inactive); in assay [3], 2.39 µM (inactive); in assay [4] it was 7.73 µM (inactive); in assay [20], 28.9 µM (inactive); in assay [5], 3.54 µM (inactive). In addition, the GI50 in [6] was 2.8 µM (inactive); in [7], 3.94 µM (inactive); in [8], 3.45 µM (inactive); in assay [9] it was > 100 µM (inactive); in [10], 2.79 µM (inactive); in assay [11] it was 3.91 µM (inactive). Besides, the GI50 is 2.64 µM (inactive) in [12]; 2.97 µM (inactive) in assay [13]; 2.64 µM (inactive) in assay [14]; 14.6 µM (inactive) in [15]; 2.09 µM (inactive) in [17]; 29 µM (inactive) in assay [19].
Consider `CCOc1cc(C2CC(c3ccc(NS(=O)(=O)c4cc([N+](=O)[O-])ccc4C)cc3)=NN2S(=O)(=O)c2cc([N+](=O)[O-])ccc2C)ccc1O` (centres undefined), for which the GI50 in assay [1] was 2.44 µM (inactive); in assay [2], 33 µM (inactive); in [4] it was 36.5 µM (inactive); in assay [20], 38.5 µM (inactive); in [5], 30.8 µM (inactive); in assay [6], 35.1 µM (inactive). Besides, the GI50 in [7] was 30.6 µM (inactive); in assay [8], 22.9 µM (inactive); in assay [9], 39.4 µM (inactive); in assay [10], 23.4 µM (inactive); in assay [11], > 100 µM (inactive); in assay [12] it was 29 µM (inactive). Further, the GI50 in assay [13] was 39.7 µM (inactive); in assay [14] it was 31.9 µM (inactive); in assay [15] it was 18.5 µM (inactive); in assay [16], 39.9 µM (inactive); in [17], 43.6 µM (inactive).
`CC1=C2C(=C[C@H]3[C@]4(C)CCCC(C)(C)[C@H]4CC[C@]34O[C@H]24)OC1=O`: the GI50 in assay [1], in [3], in [4], in assay [5], in assay [6] and in assay [7] was > 100 µM (inactive) in each case. Also, the GI50 in assay [8], in assay [9], in [11], in assay [12], in assay [13] and in assay [14] was > 100 µM (inactive) in each case. Further, the GI50 in [15], in assay [16], in assay [17], in [18] and in assay [19] was > 100 µM (inactive) each time.
On to `CCOP(=O)(OCC)/C(C#N)=C/c1cccn1Cc1ccccc1`, for which the GI50 in assay [1] is 34.3 µM (inactive); in [2], 27.2 µM (inactive); in assay [3] it was 35.3 µM (inactive); in assay [4], 17 µM (inactive); in assay [5], 40 µM (inactive); in assay [6], 28.2 µM (inactive). Also, the GI50 in assay [7] is 31.3 µM (inactive); in assay [8] it was 23.8 µM (inactive); in [9], 26.2 µM (inactive); in assay [10] it was 40.6 µM (inactive); in assay [11], 83.2 µM (inactive); in assay [12] it was 30.8 µM (inactive). Also, the GI50 was 43.5 µM (inactive) in assay [13]; 29.6 µM (inactive) in assay [14]; 16.1 µM (inactive) in assay [15]; 53 µM (inactive) in [16]; 44.4 µM (inactive) in [17]; 39.9 µM (inactive) in assay [18]. Also, in assay [19], the GI50 was 19.9 µM (inactive).
Regarding `C[C@H]1[C@@H]2C[C@@H]3O[C@@]34[C@H]3CCC5Cc6nc7c(nc6C[C@@]5(C)[C@]3(O)CC(=O)[C@@]24CO[C@]12OC(C)(C)C[C@@H]2O)CC1CC[C@@H]2C3=C[C@H]4O[C@@]5(OC(C)(CO)C[C@@H]5O)[C@H](C)[C@@]4(O)[C@]3(C)[C@@H](O)CC2[C@]1(C)C7` (some centres undefined), the GI50 in [1] was 0.0108 µM (active); in assay [2], 0.0105 µM (active); in assay [3], 0.506 µM (active); in [4], 0.0583 µM (active); in assay [20] it was 0.00361 µM (active); in [5] it was 0.0109 µM (active). The GI50 in assay [6] is 0.0266 µM (active); in assay [7], 0.0414 µM (active); in assay [8], 0.0955 µM (active); in assay [9], > 3.52 µM (inactive); in assay [10] it was 0.7 µM (active); in [11], 0.0343 µM (active). Moreover, the 50% growth inhibitory concentration (GI50) is 0.00178 µM (active) in [12]; 0.0181 µM (active) in [13]; 0.00215 µM (active) in assay [14]; 0.0873 µM (active) in assay [15]; 0.0168 µM (active) in assay [16]; 0.00071 µM (active) in assay [18]. For the same compound, the GI50 in assay [19] is 0.0175 µM (active).
With `COc1ccc([I+]c2ccc(OC)cc2)cc1`, the GI50 is > 100 µM (inactive) in assay [1]; 74.5 µM (inactive) in [2]; > 100 µM (inactive) in [3]; 27 µM (inactive) in [20]; 12.1 µM (inactive) in assay [5]; 21.1 µM (inactive) in assay [6]. Moreover, the GI50 in assay [7] was 13 µM (inactive); in assay [8], > 61.1 µM (inactive); in assay [9], > 100 µM (inactive); in assay [10], 26.7 µM (inactive); in assay [11] it was > 100 µM (inactive); in assay [12] it was > 100 µM (inactive). Besides, the GI50 in [13] was > 84.5 µM (inactive); in assay [14], 30 µM (inactive); in assay [15] it was 5.75 µM (inactive); in assay [16] it was > 100 µM (inactive); in [17], 96.8 µM (inactive); in assay [18], 28.9 µM (inactive). In [19], the GI50 is > 100 µM (inactive).
Take `CC1(C)N=C(N)N=C(N)N1c1ccc(Cl)cc1`: the GI50 is 58.6 µM (inactive) in [1]; 2.74 µM (inactive) in [2]; 9.02 µM (inactive) in [3]; 4.17 µM (inactive) in assay [4]; 15.4 µM (inactive) in assay [20]; 9.02 µM (inactive) in assay [5]. Moreover, the GI50 is 0.317 µM (active) in assay [6]; 3.44 µM (inactive) in [7]; 3.99 µM (inactive) in [8]; > 100 µM (inactive) in assay [9]; 15 µM (inactive) in [11]; 53.2 µM (inactive) in [12]. The 50% growth inhibitory concentration (GI50) in [13] was 0.708 µM (active); in assay [14], 3.33 µM (inactive); in [15] it was 8.11 µM (inactive); in assay [16] it was 27.4 µM (inactive); in assay [17], 22.6 µM (inactive); in [18], > 100 µM (inactive). The GI50 in [19] was 4.84 µM (inactive).
